The values below come from ChEMBL document CHEMBL1139569, “Hologram quantitative structure-activity relationships for a series of farnesoid X receptor activators” (Bioorg Med Chem Lett, 2005).

Some results are limits rather than exact numbers.

One experiment concerns the target T1, Bile acid receptor (Homo sapiens, UniProt Q96RI1).
T1 sequence (Q96RI1 whole entry): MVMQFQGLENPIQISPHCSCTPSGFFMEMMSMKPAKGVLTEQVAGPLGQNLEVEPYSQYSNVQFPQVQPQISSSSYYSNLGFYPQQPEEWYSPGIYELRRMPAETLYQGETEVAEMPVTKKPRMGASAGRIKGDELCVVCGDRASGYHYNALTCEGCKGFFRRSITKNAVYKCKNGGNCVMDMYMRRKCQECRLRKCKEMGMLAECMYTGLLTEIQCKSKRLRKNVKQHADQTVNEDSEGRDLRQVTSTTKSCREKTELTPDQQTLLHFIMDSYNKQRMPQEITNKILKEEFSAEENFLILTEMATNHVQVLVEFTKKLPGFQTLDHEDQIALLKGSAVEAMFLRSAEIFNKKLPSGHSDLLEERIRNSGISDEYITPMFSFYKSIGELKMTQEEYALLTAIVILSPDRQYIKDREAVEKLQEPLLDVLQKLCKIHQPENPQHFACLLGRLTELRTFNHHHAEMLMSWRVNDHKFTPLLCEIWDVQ
The experiment is described as follows: (§1) Effective concentration against farnesoid X receptor (FXR).
As for `COC(=O)/C=C/c1cccc(N(Cc2ccc(-c3cccc(OC)c3)cc2)C(=O)C2CCCCC2)c1`, the concentration for a half-maximal effect (EC50) (commonly the concentration needed to bring the measured effect to its halfway point) was 77.6 nM.

As to `COC(=O)/C=C/c1cccc(N(Cc2ccc(-c3c(OC)cccc3OC)cc2)C(=O)NC(C)C)c1`, the EC50 is 562 nM.

In the case of `COC(=O)/C=C/c1cccc(N(Cc2ccc(/C=C/c3c(Cl)cccc3Cl)cc2)C(=O)C2CCCCC2)c1`, the half-maximal effective concentration (EC50) was 151 nM.

Regarding `COC(=O)/C=C/c1cccc(N(Cc2ccc(/C=C/c3ccc(F)cc3)cc2)C(=O)C2CCCCC2)c1`, the response was half-maximal at 186 nM (EC50).

`COC(=O)/C=C/c1cccc(N(Cc2ccc(-c3cc(Cl)ccc3OC)cc2)C(=O)C2CCCCC2)c1` gave an EC50 of 234 nM.

In the case of `COC(=O)/C=C/c1cccc(N(Cc2cc(OC)cc(OC)c2)C(=O)C2CCCCC2)c1`, the concentration for a half-maximal effect (EC50) was 603 nM.

Compound `COC(=O)/C=C/c1cccc(N(Cc2ccc(/C=C/C(=O)OC(C)(C)C)cc2O)C(=O)C2CCCCC2)c1` had a concentration for a half-maximal effect (EC50) of 1000 nM.

In turn, `COC(=O)/C=C/c1cccc(N(Cc2ccc(/C=C/C(=O)O)cc2)C(=O)C2CCCCC2)c1` showed an EC50 of 1000 nM.

In turn, `COC(=O)/C=C/c1cccc(N(Cc2ccc(-c3ccc(OC(F)(F)F)cc3)cc2)C(=O)C2CCCCC2)c1` had a concentration giving a half-maximal response (EC50) of 263 nM.

As to `COC(=O)/C=C/c1cccc(N(Cc2ccc(-c3cccc(C)c3)cc2)C(=O)NC(C)C)c1`, the EC50 is 1320 nM.

As for `COC(=O)/C=C/c1cccc(N(Cc2ccc(/C=C/c3cccc(F)c3)cc2)C(=O)NC(C)C)c1`, the EC50 is 468 nM.

`COC(=O)/C=C/c1cccc(N(Cc2ccc(-c3cccc(OC)c3)cc2)C(=O)C(C)C)c1` gave a 50% effective concentration (EC50) of 72.4 nM.

The compound `COC(=O)/C=C/c1cccc(N(Cc2ccc(-c3cccc(OC(F)(F)F)c3)cc2)C(=O)C2CCCCC2)c1` had an EC50 of 417 nM.

For `COC(=O)/C=C/c1cccc(N(Cc2ccc(-c3cccc(Cl)c3)cc2)C(=O)NC(C)C)c1`, the EC50 is 1410 nM.

`COC(=O)/C=C/c1cccc(N(Cc2ccc(/C=C/c3cccc(Cl)c3)cc2)C(=O)C(C)C)c1` gave a half-maximal effective concentration (EC50) of 162 nM.

As to `COC(=O)/C=C/c1cccc(N(Cc2ccc(/C=C/c3ccccc3)cc2)C(=O)C(C)C)c1`, the 50% effective concentration (EC50) is 64.6 nM.

`COC(=O)/C=C/c1cccc(N(Cc2ccc(-c3ccc4c(c3)OCO4)cc2)C(=O)C(C)C)c1` showed an EC50 of 19.1 nM.

Consider `COC(=O)/C=C/c1cccc(N(Cc2ccc(/C=C/c3cccc(Cl)c3)cc2)C(=O)C2CCCCC2)c1`, for which the midpoint of the response, the EC50, lay at 166 nM.

With `COC(=O)/C=C/c1cccc(N(Cc2ccc(/C=C/c3ccccc3F)cc2)C(=O)C(C)C)c1`, the EC50 is 70.8 nM.

Consider `COC(=O)/C=C/c1cccc(N(Cc2ccc(-c3ccc(F)c(Cl)c3)cc2)C(=O)C(C)C)c1`, for which the EC50 was 129 nM.

Compound `CC(C)(C)OC(=O)/C=C/c1ccc(CN(C(=O)C2CCCCC2)c2cccc(/C=C/C(=O)OC(C)(C)C)c2)cc1` showed an EC50 of 1000 nM.

A further experiment concerns the target T1, Bile acid receptor. Described as §1.
On to `COC/C=C/c1ccc(CN(C(=O)C2CCCCC2)c2cccc(/C=C/C(=O)OC)c2)cc1`, for which the EC50 worked out at 233 nM.

Take `COC(=O)/C=C/c1cccc(N(Cc2ccc(/C=C/c3ccccc3F)cc2)C(=O)C2CCCCC2)c1`: the concentration for a half-maximal effect (EC50) was 64 nM.

`COC(=O)/C=C/c1cccc(N(Cc2ccc(/C=C/c3c(Cl)cccc3Cl)cc2)C(=O)C2CCCCC2)c1`: it took 150 nM to reach a half-maximal effect (EC50).

The compound `COC(=O)/C=C/c1cccc(N(Cc2ccc(-c3ccc(C)s3)cc2)C(=O)C2CCCCC2)c1` yielded an EC50 of 206 nM.

For the compound `COC(=O)/C=C/c1cccc(N(Cc2ccc(/C=C/C(=O)OC(C)(C)C)cc2OCc2ccccc2)C(=O)C2CCCCC2)c1`, the EC50 was greater than 1000 nM.

As to `CCOC/C=C/c1cccc(N(Cc2ccc(/C=C/C(=O)OC(C)(C)C)cc2)C(=O)C2CCCCC2)c1`, the EC50 stood at 220 nM.

Turning to `COC(=O)/C=C/c1cccc(N(Cc2ccc(/C=C/C(=O)OCc3ccccc3)cc2)C(=O)C2CCCCC2)c1`, the EC50 was greater than 1000 nM.

The compound `COC(=O)/C=C/c1cccc(N(Cc2ccc(/C=C/c3ccc(F)cc3)cc2)C(=O)C2CCCCC2)c1` displayed a 50% effective concentration (EC50) of 185 nM.

As for `COC(=O)/C=C/c1cccc(N(Cc2ccc(/C=C/C(=O)OC(C)(C)C)cc2OC)C(=O)C2CCCCC2)c1`, the 50% effective concentration (EC50) was greater than 1000 nM.

`COC(=O)/C=C/c1cccc(N(Cc2ccc(-c3ccc4c(c3)OCO4)cc2)C(=O)C2CCCCC2)c1` displayed a concentration for a half-maximal effect (EC50) of 38 nM.

`COC(=O)/C=C/c1cccc(N(Cc2ccc(/C=C/C(=O)N(C)C)cc2)C(=O)C2CCCCC2)c1`: the half-maximal effective concentration (EC50) was greater than 1000 nM.

Turning to `COC(=O)/C=C/c1cccc(N(Cc2ccc(/C=C/c3ccc(OC)cc3)cc2)C(=O)C2CCCCC2)c1`, the EC50 is 208 nM.

Regarding `CCOC(=O)COc1cc(/C=C/C(=O)OC(C)(C)C)ccc1CN(C(=O)C1CCCCC1)c1cccc(/C=C/C(=O)OC)c1`, the concentration giving a half-maximal response (EC50) was greater than 1000 nM.

On to `COC(=O)/C=C/c1cccc(N(Cc2ccc(/C=C/C(=O)OC(C)(C)C)cc2OC(C)=O)C(=O)C2CCCCC2)c1`, for which the 50% effective concentration (EC50) was greater than 1000 nM.

`COC/C=C/c1cccc(N(Cc2ccc(/C=C/C(=O)OC(C)(C)C)cc2)C(=O)C2CCCCC2)c1` came in with a half-maximal effective concentration (EC50) of 243 nM.

`CC(C)(C)OC(=O)/C=C/c1cccc(N(Cc2ccc(CCC(=O)OC(C)(C)C)cc2)C(=O)C2CCCCC2)c1`: the 50% effective concentration (EC50) is greater than 1000 nM.

In the case of `COC(=O)/C=C/c1cccc(N(Cc2ccc(/C=C/C(=O)OC(C)(C)C)cc2O)C(=O)C2CCCCC2)c1`, the EC50 is greater than 1000 nM.

As to `COC(=O)/C=C/c1cccc(N(Cc2ccc(/C=C/c3scnc3C)cc2)C(=O)C(C)C)c1`, the half-maximal effective concentration (EC50) is 228 nM.

The compound `COC(=O)/C=C/c1cccc(N(Cc2ccc(/C=C/c3cc(C(F)(F)F)cc(C(F)(F)F)c3)cc2)C(=O)C2CCCCC2)c1` returned a half-maximal effective concentration (EC50) of 1470 nM.

`CC(C)(C)OC(=O)/C=C/c1ccc(CN(C(=O)C2CCCCC2)c2cccc(/C=C/C(N)=O)c2)cc1` gave an EC50 greater than 1000 nM.

As to `COC(=O)/C=C/c1cccc(N(Cc2ccc(/C=C/C(=O)O)cc2)C(=O)C2CCCCC2)c1`, the 50% effective concentration (EC50) was greater than 1000 nM.

For the compound `COC(=O)/C=C/c1cccc(N(Cc2ccc(/C=C/C(=O)OC(C)(C)C)cc2OS(C)(=O)=O)C(=O)C2CCCCC2)c1`, the concentration giving a half-maximal response (EC50) is greater than 1000 nM.

`COC(=O)/C=C/c1cccc(N(Cc2ccc(/C=C/c3ccccn3)cc2)C(=O)C(C)C)c1` gave an EC50 of 310 nM.

The compound `COC(=O)/C=C/c1cccc(N(Cc2ccc(/C=C/C(=O)NC(C)(C)C)cc2)C(=O)C2CCCCC2)c1` showed a half-maximal effective concentration (EC50) greater than 1000 nM.

The compound `COC(=O)/C=C/c1cccc(N(Cc2ccc(/C=C/c3ccccn3)cc2)C(=O)C2CCCCC2)c1` registered a half-maximal effective concentration (EC50) of 309 nM.

In the case of `COC(=O)/C=C/c1cccc(N(Cc2ccc(/C=C/c3cccc(Cl)c3)cc2)C(=O)C2CCCCC2)c1`, the EC50 came to 165 nM.

`COC(=O)/C=C/c1cccc(N(Cc2ccc(/C=C/c3scnc3C)cc2)C(=O)C2CCCCC2)c1` registered a concentration giving a half-maximal response (EC50) of 227 nM.

`COC(=O)/C=C/c1cccc(N(Cc2ccc(/C=C/C(=O)OC(C)(C)C)cc2OC(=O)c2ccccc2)C(=O)C2CCCCC2)c1` showed an EC50 greater than 1000 nM.

`COC(=O)/C=C/c1cccc(N(Cc2ccc(-c3c(OC)cccc3OC)cc2)C(=O)C2CCCCC2)c1` showed an EC50 of 77 nM.

As to `COC(=O)/C=C/c1cccc(N(Cc2ccc(/C=C/c3cccc(F)c3)cc2)C(=O)C2CCCCC2)c1`, the EC50 was determined as 86 nM.

As to `CCOC(=O)/C=C/c1ccc(CN(C(=O)C2CCCCC2)c2cccc(/C=C/C(=O)OC)c2)cc1`, the 50% effective concentration (EC50) is greater than 1000 nM.

With `CC(C)(C)OC(=O)/C=C/c1ccc(CN(C(=O)C2CCCCC2)c2cccc(/C=C/C(=O)OC(C)(C)C)c2)cc1`, the concentration for a half-maximal effect (EC50) is greater than 1000 nM.

Regarding `COC(=O)/C=C/c1ccc(CN(C(=O)C2CCCCC2)c2cccc(/C=C/C(=O)OC)c2)cc1`, the EC50 was greater than 1000 nM.

`COC(=O)/C=C/c1cccc(N(Cc2ccc(-c3ccc(N(C)C)cc3)cc2)C(=O)C2CCCCC2)c1` [FEXARAMINE]: a half-maximal effect (EC50) was put at 25 nM.
